Measured values taken from US12227512B2, “Benzimidazoles and methods of using same” (priority 2019, dated 2025).

Key:
MB002 cells = assay: MTT assay, cell proliferation; format: cell-based; conditions: MB002, read-out: Dose E1
[1] = Mouse PK evaluation, plasma, IV; conditions: CD-1 mice; for concentration at 0.083 h / concentration at 0.25 h / concentration at 0.5 h / concentration at 1 h / concentration at 2 h / concentration at 4 h / concentration at 8 h / concentration at 24 h: Plasma concentration; for AUC(0-t): AUClast
SARS-CoV-2 = conditions: SARS-CoV-2-infected Vero E6 cells; 6 concentrations, 48 hours; XTT
[2] = tested on: Gli-luciferace activity in the SUFU-KO-light cells; assay: SUFU-KO-Light assay, inhibition of Gli-luciferase activity; format: cell-based; conditions: read-out: IC50 (μM) SUFU-KO-Light; inhibition of Gli-luciferase activity; listed as Isis-11 (+isomer/E1)
Text: IC50 SUFO-KO-Light values are for inhibition of Gli-luciferace activity in the SUFU-KO-light cells developed by the James Chen laboratory at Stanford University.

[3] = CD-1, mouse, in vivo, 3 mg/kg, Mean, 3 mg/kg IV
[4] = CD-1, mouse, in vivo, 3 mg/kg, Mouse 1, 3 mg/kg IV
[5] = CD-1, mouse, in vivo, 3 mg/kg, Mouse 2, 3 mg/kg IV
[6] = CD-1, mouse, in vivo, 3 mg/kg, Mouse 3, 3 mg/kg IV

Compound: CN(C)CCCn1c(N)nc2ccc3c(c21)CC(CN(C)C)O3 (single isomer, unassigned) [Compound E1]
- IC50 (MB002 cells): 16.5 µM
- AUC_%Extrap_obs, Mean ([1]; 3 mg/kg IV): 20.8%
- AUC_%Extrap_obs, Mouse 1 ([1]; 3 mg/kg IV): 25.7%
- AUC_%Extrap_obs, Mouse 2 ([1]; 3 mg/kg IV): 20.8%
- AUC_%Extrap_obs, Mouse 3 ([1]; 3 mg/kg IV): 15.9%
- AUClast/D, Mean ([1]; 3 mg/kg IV): 116
- AUClast/D, Mouse 1 ([1]; 3 mg/kg IV): 107
- AUClast/D, Mouse 2 ([1]; 3 mg/kg IV): 108
- AUClast/D, Mouse 3 ([1]; 3 mg/kg IV): 132
- C0, Mean ([1]; 3 mg/kg IV): 664 ng/mL
- C0, Mouse 1 ([1]; 3 mg/kg IV): 619 ng/mL
- C0, Mouse 2 ([1]; 3 mg/kg IV): 624 ng/mL
- C0, Mouse 3 ([1]; 3 mg/kg IV): 749 ng/mL
- Cl_obs, Mean ([1]; 3 mg/kg IV): 115 mL/min/kg
- Cl_obs, Mouse 1 ([1]; 3 mg/kg IV): 116 mL/min/kg
- Cl_obs, Mouse 2 ([1]; 3 mg/kg IV): 122 mL/min/kg
- Cl_obs, Mouse 3 ([1]; 3 mg/kg IV): 106 mL/min/kg
- Vss_obs, Mean ([1]; 3 mg/kg IV): 90 L/kg
- Vss_obs, Mouse 1 ([1]; 3 mg/kg IV): 104 L/kg
- Vss_obs, Mouse 2 ([1]; 3 mg/kg IV): 96.2 L/kg
- Vss_obs, Mouse 3 ([1]; 3 mg/kg IV): 68.3 L/kg
- Plasma concentration, Mouse 1 ([1]; 3 mg/kg IV, 0.5 h): 45.5 ng/mL
- Plasma concentration, Mouse 1 ([1]; 3 mg/kg IV, 1 h): 21.4 ng/mL
- Plasma concentration, Mouse 1 ([1]; 3 mg/kg IV, 2 h): 13.4 ng/mL
- Plasma concentration, Mouse 1 ([1]; 3 mg/kg IV, 24 h): 10.0 ng/mL
- Plasma concentration, Mouse 3 ([1]; 3 mg/kg IV, 24 h): 4.33 ng/mL
- concentration at 0.083 h [1, 3]: 387 ng/mL
- concentration at 0.25 h [1, 3]: 131 ng/mL
- concentration at 0.5 h ([1]; CD-1, mouse, in vivo, 3 mg/kg, Mean, 3 mg/kg IV, 0.5 h): 59.1 ng/mL
- concentration at 1 h ([1]; CD-1, mouse, in vivo, 3 mg/kg, Mean, 3 mg/kg IV, 1 h): 42.9 ng/mL
- concentration at 2 h ([1]; CD-1, mouse, in vivo, 3 mg/kg, Mean, 3 mg/kg IV, 2 h): 17.8 ng/mL
- concentration at 4 h [1, 3]: 13.5 ng/mL
- concentration at 8 h [1, 3]: 7.3 ng/mL
- concentration at 24 h ([1]; CD-1, mouse, in vivo, 3 mg/kg, Mean, 3 mg/kg IV, 24 h): 6.1 ng/mL
- concentration at 0.083 h [1, 4]: 352 ng/mL
- concentration at 0.25 h [1, 4]: 113 ng/mL
- concentration at 4 h [1, 4]: 13.3 ng/mL
- concentration at 8 h [1, 4]: 5.5 ng/mL
- concentration at 0.083 h [1, 5]: 367 ng/mL
- concentration at 0.25 h [1, 5]: 126 ng/mL
- concentration at 0.5 h ([1]; CD-1, mouse, in vivo, 3 mg/kg, Mouse 2, 3 mg/kg IV, 0.5 h): 60.9 ng/mL
- concentration at 1 h ([1]; CD-1, mouse, in vivo, 3 mg/kg, Mouse 2, 3 mg/kg IV, 1 h): 51.8 ng/mL
- concentration at 2 h ([1]; CD-1, mouse, in vivo, 3 mg/kg, Mouse 2, 3 mg/kg IV, 2 h): 20.7 ng/mL
- concentration at 4 h [1, 5]: 12.9 ng/mL
- concentration at 8 h [1, 5]: 6.2 ng/mL
- concentration at 24 h ([1]; CD-1, mouse, in vivo, 3 mg/kg, Mouse 2, 3 mg/kg IV, 24 h): 4.11 ng/mL
- concentration at 0.083 h [1, 6]: 443 ng/mL
- concentration at 0.25 h [1, 6]: 154 ng/mL
- concentration at 0.5 h ([1]; CD-1, mouse, in vivo, 3 mg/kg, Mouse 3, 3 mg/kg IV, 0.5 h): 71 ng/mL
- concentration at 1 h ([1]; CD-1, mouse, in vivo, 3 mg/kg, Mouse 3, 3 mg/kg IV, 1 h): 55.5 ng/mL
- concentration at 2 h ([1]; CD-1, mouse, in vivo, 3 mg/kg, Mouse 3, 3 mg/kg IV, 2 h): 19.2 ng/mL
- concentration at 4 h [1, 6]: 14.3 ng/mL
- concentration at 8 h [1, 6]: 10.2 ng/mL
- AUC(0-inf) ([1]; CD-1, mouse, in vivo, iv, 3 mg/kg, AUCInf, Mouse 3, 3 mg/kg IV): 470 ng·h/mL
- AUC(0-t) ([1]; CD-1, mouse, in vivo, iv, 3 mg/kg, Mean, 3 mg/kg IV): 347 ng·h/mL
- AUC(0-t) ([1]; CD-1, mouse, in vivo, iv, 3 mg/kg, Mouse 1, 3 mg/kg IV): 321 ng·h/mL
- AUC(0-t) ([1]; CD-1, mouse, in vivo, iv, 3 mg/kg, Mouse 2, 3 mg/kg IV): 324 ng·h/mL
- AUC(0-t) ([1]; CD-1, mouse, in vivo, iv, 3 mg/kg, Mouse 3, 3 mg/kg IV): 395 ng·h/mL
- MRT inf ([1]; CD-1, mouse, in vivo, iv, 3 mg/kg, MRTInf_obs, Mouse 3, 3 mg/kg IV): 10.7 h
- half-life ([1]; CD-1, mouse, in vivo, iv, 3 mg/kg, T1/2, Mouse 3, 3 mg/kg IV): 12 h
- effect on viral replication over the tested concentration range (SARS-CoV-2): no effect on viral replication
- IC50 [2]: 5 µM
